From patent US20260083865A1, “PROSTATE SPECIFIC MEMBRANE ANTIGEN (PSMA) LIGANDS AND USE THEREOF” (priority 2022, published 2026) come the findings set out here.

Molecules are shown by their SMILES. Numbered stars: 1 amine (or outer) side, 2 acyl side, 3 side chain; on linkers, the order of the positions; unused ones are H or OH. Bridge positions count the residues as written; N and C are the ends. Square brackets hold non-standard residues; d marks the D form. Side chains are listed from the residue outwards. Peptide text beside a SMILES is read from it. * marks the point of attachment. Acetyl(1-DOTA-4-piperidyl) = O=C(O)CN1CCN(CC(=O)O)CCN(CC(=O)N2CCC(CC(=O)*)CC2)CCN(CC(=O)O)CC1; DOTA = O=C(O)CN1CCN(CC(=O)O)CCN(CC(=O)*)CCN(CC(=O)O)CC1; Phe(4-Cl) = N[C@@H](Cc1ccc(Cl)cc1)C(=O)O; Phe(3-Me) = Cc1cccc(C[C@H](N)C(=O)O)c1; Arg(Me) = CNC(=N)NCCC[C@H](N)C(=O)O; hPhe = N[C@@H](CCc1ccccc1)C(=O)O; αMeF = C[C@](N)(Cc1ccccc1)C(=O)O; 2Pal = N[C@@H](Cc1ccccn1)C(=O)O; X1 = O=C(CC1CCN([*:1])CC1)[*:2]; X6 = O=C(CN1CCN([*:1])CC1)[*:2]; Lys(Me) = CNCCCC[C@H](N)C(=O)O; Tle = CC(C)(C)[C@H](N)C(=O)O; 4Amb = NCc1ccc(C(=O)O)cc1; αMeS = C[C@](N)(CO)C(=O)O; Aib = CC(C)(N)C(=O)O; CH2 = C([*:1])[*:2]; Sar = CNCC(=O)O A value given as a limit tells only on which side of the number the result lay.

Assay [1] addresses T1, PSMA-expressing C4-2 cells (Homo sapiens, UniProt Q04609).
T1 construct: PSMA-expressing C4-2 cells (ATCC, Cat. No. CRL-3314) were cultured in RPMI-1640; host or cells: C4-2 cells
Kind of assay: FACS binding assay (competition with 50 nM PSM-0183). The following applies: pIC50 category of FACS binding, C4-2 cells; read-out: pIC50 [C4-2] CAT (converted). Summed up:
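C4-2 cells were incubated 1 h at 4 °C with 50 nM AF488-labelled peptide PSM-0183 plus increasing test compound concentrations, then washed twice in ice-cold buffer. Median fluorescence in the AF488 channel was read by flow cytometry. IC50/pIC50 was derived by 4PL fitting of MFI versus concentration.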

For assay [2], the target named is T2, Fc-fusion protein of human PSMA (hPSMA-Fc) (Homo sapiens, UniProt Q04609).
T2 construct: purchased Acro Biosystems PSA-H5264
T2 sequence (Q04609 44-750 limits assumed): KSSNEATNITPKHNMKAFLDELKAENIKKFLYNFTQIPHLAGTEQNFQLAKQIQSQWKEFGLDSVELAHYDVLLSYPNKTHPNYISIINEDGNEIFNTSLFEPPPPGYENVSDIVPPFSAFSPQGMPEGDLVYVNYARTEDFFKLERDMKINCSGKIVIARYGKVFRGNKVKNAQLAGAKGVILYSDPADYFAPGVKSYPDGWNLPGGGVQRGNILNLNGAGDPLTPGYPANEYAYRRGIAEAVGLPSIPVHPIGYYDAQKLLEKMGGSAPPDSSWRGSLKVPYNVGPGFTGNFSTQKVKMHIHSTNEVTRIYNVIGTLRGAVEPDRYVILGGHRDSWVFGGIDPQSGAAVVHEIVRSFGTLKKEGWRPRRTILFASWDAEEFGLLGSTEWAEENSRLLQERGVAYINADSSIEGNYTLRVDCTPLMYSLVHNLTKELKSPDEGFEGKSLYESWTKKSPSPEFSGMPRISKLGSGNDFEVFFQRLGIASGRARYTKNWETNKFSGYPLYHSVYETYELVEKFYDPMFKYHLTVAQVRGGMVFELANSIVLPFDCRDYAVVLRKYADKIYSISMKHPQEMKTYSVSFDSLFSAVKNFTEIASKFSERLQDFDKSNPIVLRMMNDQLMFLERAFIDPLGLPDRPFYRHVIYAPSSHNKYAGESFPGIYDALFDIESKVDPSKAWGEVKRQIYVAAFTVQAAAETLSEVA
Kind of assay: Surface plasmon resonance assay (Biacore T200, single cycle kinetic). The assay is classed as binding. The following applies: pKD category for PSMA SPR activity assay, hPSMA-Fc, 25° C.; read-out: pKD CAT (converted). Summed up: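 hPSMA-Fc was captured (~1000 RU) on an Fc-binding-peptide CM5 chip, and compounds were run in single cycle kinetic mode at 25° C in HBST with 0.1% DMSO. Double-blank-corrected sensorgrams were fitted to a 1:1 Langmuir model to give KD, reported as pKD.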
(In SPR one partner is held on a chip, and binding of the other changes the refractive index at the surface.)

T1 sequence (Q04609 whole entry): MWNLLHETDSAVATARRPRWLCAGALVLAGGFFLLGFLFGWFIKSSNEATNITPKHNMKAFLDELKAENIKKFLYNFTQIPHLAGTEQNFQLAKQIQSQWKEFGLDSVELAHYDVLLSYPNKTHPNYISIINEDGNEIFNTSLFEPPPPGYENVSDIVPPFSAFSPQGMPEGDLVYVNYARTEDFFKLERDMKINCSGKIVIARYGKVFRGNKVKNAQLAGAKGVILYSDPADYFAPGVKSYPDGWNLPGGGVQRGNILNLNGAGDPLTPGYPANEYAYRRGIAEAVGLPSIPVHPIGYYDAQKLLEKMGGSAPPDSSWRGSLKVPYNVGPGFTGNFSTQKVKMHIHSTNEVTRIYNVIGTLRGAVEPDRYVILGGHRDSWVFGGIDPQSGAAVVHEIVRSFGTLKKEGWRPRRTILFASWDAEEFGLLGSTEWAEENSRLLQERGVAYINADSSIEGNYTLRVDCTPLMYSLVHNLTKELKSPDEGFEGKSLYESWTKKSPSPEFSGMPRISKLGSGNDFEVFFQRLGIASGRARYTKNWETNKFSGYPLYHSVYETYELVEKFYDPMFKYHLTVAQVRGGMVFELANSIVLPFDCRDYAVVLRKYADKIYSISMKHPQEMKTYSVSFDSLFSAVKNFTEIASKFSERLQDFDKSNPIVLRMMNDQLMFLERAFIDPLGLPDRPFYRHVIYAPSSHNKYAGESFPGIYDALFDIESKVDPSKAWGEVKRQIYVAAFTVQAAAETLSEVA

Take `C[C@@H](O)[C@H](NC(=O)[C@@H](NC(=O)[C@@H]1CSSC[C@H](NC(=O)[C@H](Cc2ccc(Cl)cc2)NC(=O)[C@](C)(CO)NC(=O)[C@@H](NC(=O)CC2CCN(C(=O)CN3CCN(CC(=O)O)CCN(CC(=O)O)CCN(CC(=O)O)CC3)CC2)[C@@H](C)O)C(=O)N[C@@H](CCCCN)C(=O)N[C@@H](CCCNC(=N)N)C(=O)N[C@@](C)(CO)C(=O)N[C@@H](CC(N)=O)C(=O)N1)C(C)(C)C)C(N)=O` [PSM-0407, DOTA-Cmp-Thr-Ams-Pcf-[Cys-Lys-Arg-Ams-Asn-Cys]-Tle-Thr-NH2] ({DOTA}-[X1]T[αMeS][Phe(4-Cl)]CKR[αMeS]NC[Tle]T-NH2; disulfide 5-10): in assay [1], the IC50 was less than 200 nM. In assay [2], the Kd is less than 12.6 nM.

For `CC(=O)N[C@H](C(=O)N(C)CC(=O)N[C@@H](Cc1ccccc1)C(=O)N[C@H]1CSSC[C@@H](C(=O)N[C@H](C(=O)N[C@H](C(N)=O)[C@@H](C)O)C(C)(C)C)NC(=O)[C@H](CC(N)=O)NC(=O)C(C)(C)NC(=O)[C@H](CCCNC(=N)N)NC(=O)[C@H](CCCCN)NC1=O)[C@@H](C)O` [PSM-0408, Ac-Thr-Nmg-Phe-[Cys-Lys-Arg-Aib-Asn-Cys]-Tle-Thr-NH2] (Ac-T[Sar]FCKR[Aib]NC[Tle]T-NH2; disulfide 4-9), the IC50 in assay [1] was 200 to 1260 nM. Further, the Kd in assay [2] is 126 to 501 nM.

With `CNCCCC[C@@H]1NC(=O)[C@@H](NC(=O)[C@H](Cc2ccccn2)NC(=O)C(C)(C)NC(=O)[C@@H](NC(=O)CC2CCN(C(=O)CN3CCN(CC(=O)O)CCN(CC(=O)O)CCN(CC(=O)O)CC3)CC2)[C@@H](C)O)CSSC[C@@H](C(=O)N[C@H](C(N)=O)C(C)(C)C)NC(=O)[C@H](CC(N)=O)NC(=O)C(C)(C)NC(=O)[C@H](CCCNC(=N)NC)NC1=O` [PSM-0409, DOTA-Cmp-Thr-Aib-Opa-[Cys-Lys(Me)-Arg(Me)-Aib-Asn-Cys]-Tle-NH2] ({DOTA}-[X1]T[Aib][2Pal]C[Lys(Me)][Arg(Me)][Aib]NC[Tle]-NH2; disulfide 5-10), the IC50 in assay [1] is 200 to 1260 nM. For the same compound, the Kd in assay [2] was 126 to 501 nM.

As for `CNCCCC[C@@H]1NC(=O)[C@@H](NC(=O)[C@H](Cc2ccc(Cl)cc2)NC(=O)C(C)(C)NC(=O)[C@@H](NC(=O)CC2CCN(C(=O)CN3CCN(CC(=O)O)CCN(CC(=O)O)CCN(CC(=O)O)CC3)CC2)[C@@H](C)O)CSSC[C@@H](C(=O)N[C@H](C(=O)N[C@H](C(N)=O)[C@@H](C)O)C(C)(C)C)NC(=O)[C@H](CC(N)=O)NC(=O)C(C)(C)NC(=O)[C@H](CCCNC(=N)N)NC1=O` [PSM-0410, DOTA-Cmp-Thr-Aib-Pcf-[Cys-Lys(Me)-Arg-Aib-Asn-Cys]-Tle-Thr-NH2] ({DOTA}-[X1]T[Aib][Phe(4-Cl)]C[Lys(Me)]R[Aib]NC[Tle]T-NH2; disulfide 5-10), the IC50 in assay [1] was less than 200 nM. Further, the Kd in assay [2] is less than 12.6 nM.

In the case of `CC(=O)N[C@H](C(=O)NC(C)(C)C(=O)N[C@@H](CCc1ccccc1)C(=O)N[C@H]1CSSC[C@@H](C(=O)N[C@H](C(=O)N[C@H](C(N)=O)[C@@H](C)O)C(C)(C)C)NC(=O)[C@H](CC(N)=O)NC(=O)C(C)(C)NC(=O)[C@H](CCCNC(=N)N)NC(=O)[C@H](CCCCN)NC1=O)[C@@H](C)O` [PSM-0411, Ac-Thr-Aib-Hfe-[Cys-Lys-Arg-Aib-Asn-Cys]-Tle-Thr-NH2] (Ac-T[Aib][hPhe]CKR[Aib]NC[Tle]T-NH2; disulfide 4-9), the IC50 in assay [1] was less than 200 nM. For the same compound, the Kd in assay [2] was less than 12.6 nM.

Consider `CC(=O)N[C@H](C(=O)NC(C)(C)C(=O)N[C@@H](Cc1cccc(C)c1)C(=O)N[C@H]1CSSC[C@@H](C(=O)N[C@H](C(=O)N[C@H](C(N)=O)[C@@H](C)O)C(C)(C)C)NC(=O)[C@H](CC(N)=O)NC(=O)C(C)(C)NC(=O)[C@H](CCCNC(=N)N)NC(=O)[C@H](CCCCN)NC1=O)[C@@H](C)O` [PSM-0412, Ac-Thr-Aib-Mmf-[Cys-Lys-Arg-Aib-Asn-Cys]-Tle-Thr-NH2] (Ac-T[Aib][Phe(3-Me)]CKR[Aib]NC[Tle]T-NH2; disulfide 4-9), for which the IC50 in assay [1] was less than 200 nM. In addition, the Kd in assay [2] is less than 12.6 nM.

Take `C[C@@H](O)[C@H](NC(=O)[C@@H](NC(=O)[C@@H]1CSSC[C@H](NC(=O)[C@H](Cc2ccccc2)NC(=O)C(C)(C)NC(=O)CN2CCN(C(=O)CN3CCN(CC(=O)O)CCN(CC(=O)O)CCN(CC(=O)O)CC3)CC2)C(=O)N[C@@H](CCCCN)C(=O)N[C@@H](CCCNC(=N)N)C(=O)NC(C)(C)C(=O)N[C@@H](CC(N)=O)C(=O)N1)C(C)(C)C)C(N)=O` [PSM-0413, DOTA-PPAc-Aib-Phe-[Cys-Lys-Arg-Aib-Asn-Cys]-Tle-Thr-NH2] ({DOTA}-[X6][Aib]FCKR[Aib]NC[Tle]T-NH2; disulfide 4-9): the IC50 in assay [1] is less than 200 nM. Besides, in assay [2], the Kd is 12.6 to 126 nM.

With `CC(=O)N[C@H](C(=O)N[C@@H](C)C(=O)N[C@@](C)(Cc1ccccc1)C(=O)N[C@H]1CSSC[C@@H](C(=O)N[C@H](C(=O)N[C@H](C(N)=O)[C@@H](C)O)C(C)(C)C)NC(=O)[C@H](CC(N)=O)NC(=O)C(C)(C)NC(=O)[C@H](CCCNC(=N)N)NC(=O)[C@H](CCCCN)NC1=O)[C@@H](C)O` [PSM-0414, Ac-Thr-Ala-Amf-[Cys-Lys-Arg-Aib-Asn-Cys]-Tle-Thr-NH2] (Ac-TA[αMeF]CKR[Aib]NC[Tle]T-NH2; disulfide 4-9), the IC50 in assay [1] was greater than 3160 nM. Also, in assay [2], the Kd was 12.6 to 126 nM.

As for `CC(=O)N[C@H](C(=O)NC(C)(C)C(=O)N[C@@H](Cc1ccccc1)C(=O)N[C@H]1CSSC[C@@H](C(=O)N[C@H](C(=O)N[C@H](C(N)=O)[C@@H](C)O)C(C)(C)C)NC(=O)[C@H](CC(N)=O)NC(=O)[C@H](CCCCNC(=O)CC2CCN(C(=O)CN3CCN(CC(=O)O)CCN(CC(=O)O)CCN(CC(=O)O)CC3)CC2)NC(=O)[C@H](CCCNC(=N)N)NC(=O)[C@H](CCCCN)NC1=O)[C@@H](C)O` [PSM-0415, Ac-Thr-Aib-Phe-[Cys-Lys-Arg-Lys(DOTA-Cmp)-Asn-Cys]-Tle-Thr-NH2] (Ac-T[Aib]FCKRK(Acetyl(1-DOTA-4-piperidyl))NC[Tle]T-NH2; disulfide 4-9), in assay [1], the IC50 was less than 200 nM. Also, the Kd in assay [2] was 12.6 to 126 nM.

Take `CC(=O)N[C@H](C(=O)NC(C)(C)C(=O)N[C@@H](Cc1ccccc1)C(=O)N[C@H]1CSSC[C@@H](C(=O)N[C@H](C(=O)N[C@H](C(N)=O)[C@@H](C)O)C(C)(C)C)NC(=O)[C@H](CC(N)=O)NC(=O)[C@H](CCCCNC(=O)c2ccc(CNC(=O)CN3CCN(CC(=O)O)CCN(CC(=O)O)CCN(CC(=O)O)CC3)cc2)NC(=O)[C@H](CCCNC(=N)N)NC(=O)[C@H](CCCCN)NC1=O)[C@@H](C)O` [PSM-0419, Ac-Thr-Aib-Phe-[Cys-Lys-Arg-Lys(DOTA-Pamb)-Asn-Cys]-Tle-Thr-NH2] (Ac-T[Aib]FCKRK([4Amb-DOTA])NC[Tle]T-NH2; disulfide 4-9): in assay [1], the IC50 is less than 200 nM. Further, in assay [2], the Kd was less than 12.6 nM.

For the compound `CNCCCC[C@@H]1NC(=O)[C@@H](NC(=O)[C@H](Cc2ccc(Cl)cc2)NC(=O)C(C)(C)NC(=O)[C@@H](NC(=O)CC2CCN(C(=O)CN3CCN(CC(=O)O)CCN(CC(=O)O)CCN(CC(=O)O)CC3)CC2)[C@@H](C)O)CSCSC[C@@H](C(=O)N[C@H](C(N)=O)C(C)(C)C)NC(=O)[C@H](CC(N)=O)NC(=O)C(C)(C)NC(=O)[C@H](CCCNC(=N)NC)NC1=O` [PSM-0420, DOTA-Cmp-Thr-Aib-Pcf-[Smc-Lys(Me)-Arg(Me)-Aib-Asn-Cys]-Tle-NH2] ({DOTA}-[X1]T[Aib][Phe(4-Cl)]C[Lys(Me)][Arg(Me)][Aib]NC[Tle]-NH2; linker 5-10 via CH2), the IC50 in assay [1] is less than 200 nM. The Kd in assay [2] is less than 12.6 nM.
